Test system: erythrocytic cells
Assay: 2,3-DPG level of erythrocytic cells
Assay type: cell-based
Source text: Levels of ATP and DPG may be measured or assayed in biological samples (e.g., in cells) by any suitable means or procedure. By way of example only, levels of ATP and DPG may be measured or assayed in biological samples (e.g., in cells) by using Sigma Diagnostic (Sigma Aldrich Chemicals, St. Louis, Mo.) assay kits (cat. # for ATP assay 366 and 366-A, and for 2,3-DPG assay 35-A) designed for determination of ATP and 2,3-DPG in biological samples (e.g., red blood cells). By further way of example only, biological samples (e.g., cells) may be lysed using 12% and 8% trichloracetic acid for ATP and 2,3-DPG determination, respectively. ATP may be quantified enzymatically by catalyzing ATP to ADP in the presence of 3-phosphoglycerate (3-PGA) using phosphoglycerate phosphokinase (PGK) and the resulting 1,3-diphosphoglycerate induced oxidation of NADH to NAD using glyceraldehyde phosphate dehydrogenase (GAPD) present in the assay media. The level of NADH may be monitored spectrophotometrically at 340 nm which corresponds directly with the ATP level. 2,3-DPG may be hydrolyzed by 2,3-DPG phosphatase to 3-PGA and inorganic phosphorus in the presence of 2-phosphoglycolic acid as a stimulator. 3-PGA reacts with ATP in the presence of PGK and the subsequent steps follow the above protocol used for ATP quantification. […]

Question: Which “level of 2,3-DPG” value (37° C., first 7 hours of incubation) does the source give for `OC[C@H]1O[C@H](O[C@H]2O[C@H](CO)[C@@H](O)[C@H](O)[C@H]2O)[C@H](O)[C@@H](O)[C@@H]1O` [trehalose] here?
Answer: high

Question: What about the “level of 2,3-DPG” value (7 hours incubation at about 37° C. in a trehalose containing solution) of the same compound?
Answer: about 8.5 μmol/gHb

Source: US20050031597A1, “Cells and improved method for preserving cells” (priority 2003, published 2005)
